Laboratory results from a melting point compilation (Tetko et al.; mined from patent text by program, amines drawn as free bases though some values may be those of a salt).

Row | SMILES | melting point [°C]
1 | Nc1nc(N)c2c(CCc3ccc(C(=O)N[C@@H](CCC(=O)O)C(=O)O)cc3)cnc-2[nH]1 | 258 to 262
2 | CC1CCCC(C)N1S(=O)(=O)N[C@@H](Cc1ccc(NC(=O)c2c(Cl)cncc2Cl)cc1)C(=O)O (some centres not stated) | 162
3 | COc1cccc(-c2nc3c([nH]2)C(C)(C)CS(=O)(=O)CC3(C)C)c1 | 217 to 219
4 | BrCc1ccc(-c2ccc(CBr)cc2)cc1 | 166 to 168
5 | CCCCCNC(=O)N(C)c1cccc(-c2ccc(C=C(OCC)C(=O)O)cc2OCCCC)c1 | 59
6 | O=C1NCn2c3ccccc3c(=O)c3cccc1c32 | 250 to 255
7 | CSc1ccc(-c2c(NN)nc(Cl)nc2-c2ccccc2)cc1 | 272 to 274
8 | COc1ccc(C(C#N)=NO)cc1OC | 183 to 191
9 | COc1ccc(CCCCCCCCO)cc1 | 47 to 49
10 | CCOc1cc2cc(C(=O)O)cc(-c3ccnc(Cl)c3)c2cc1OCC | > 250
11 | N#Cc1cccc(C2C(=O)N(Cc3ccccc3)Cc3cncn32)c1 (configuration not stated) | 163 to 165
12 | CC(O)=C(C#N)C(=O)Nc1cccc(S(C)(=O)=O)c1 | 213 to 214
13 | CC(C)C(c1ccc(N)cc1)c1cccnc1 (configuration not stated) | 102
14 | CCCCCCCCCCOc1ccc(O)c2ccccc12 | 89 to 90
15 | CC#CCCCn1ncc2c(N)c3c(nc21)CN(CCC)C3=O | 168 to 170
16 | Clc1cc(NC23CC4CC(CC(C4)C2)C3)nc(NC23CC4CC(CC(C4)C2)C3)n1 | 232 to 236
17 | CCCCOc1cc(C(N)=O)nn1Cc1ccc(Cl)cc1 | 137 to 138
18 | CCCOc1ccccc1-c1ccoc1C(=O)NNC(=O)c1ccc(O)c(C#N)c1 | 114 to 117
19 | C[C@@H](n1cnc2cc(N3CCN(C)CC3)ccc2c1=O)[C@](O)(Cn1cncn1)c1ccc(F)cc1F | 121 to 131
20 | NCCCCc1ccc(C2=NNC(=O)CC2)cc1 | 167 to 168
21 | COc1ccc(S(=O)(=O)C2(CCCCC#Cc3ccc(Cl)cc3)SC(=O)NC2=O)cc1 (configuration not stated) | 145 to 148
22 | O=C(NCCOc1cccc2c1OCC(CO)O2)c1ccc(F)cc1 (configuration not stated) | 124
23 | CNCc1cccc(NC(=O)c2c[nH]c3c2C(=O)CCC3)c1 | 130 to 132
24 | COC(=O)c1cc(C(C)=O)c(C)nc1C1=NC(C)(C(C)C)C(=O)N1 (configuration not stated) | 118 to 120
25 | CC(=O)Nc1ccc(-c2nn(C(C)=O)c3c2Cc2ccccc2-3)cc1 | 245 to 246

Row | SMILES | melting point [°C]
26 | CC(C)(C)c1cc2c(c(C(C)(C)C)c1)OCC(/C=C/C=C/C=C/C(=O)O)=C2 | 166 to 168
27 | CC(=O)OC[C@H]1CCn2c(cc3ccccc32)C1 | 63 to 64
28 | O=C(O)COCc1ccc(C=CC(=O)N2CCc3c([nH]c4ccccc34)C2c2ccc3c(c2)OCO3)cc1 (configuration not stated) | 162 to 163
29 | c1ccc(CSc2nc3ccccn3n2)cc1 | 79 to 81
30 | CC(=O)N(C)c1cc(N)cc(N(C)C(C)=O)c1 | 179 to 181
31 | CN(C(=O)OCc1ccccc1)c1ccc(OCC(=O)N[C@@H](CC(N)=O)C(=O)N[C@@H](Cc2ccccc2)[C@H](O)C(=O)N2CCC[C@H]2C(=O)NC(C)(C)C)cc1 | 98 to 100
32 | Cc1c(C(=O)Nc2ccc(N3CCCC3)c(C#N)c2)cnn1-c1ccc(Cl)cc1 | 205
33 | COc1ccc(S(=O)(=O)c2cnoc2C(C)C)cc1 | 62 to 63.5
34 | CC(C)Oc1ccc(-c2nn(C(C)c3oc4ccccc4c(=O)c3-c3cccc(F)c3)c3ncnc(N)c23)cc1 (configuration not stated) | 224 to 226
35 | CC1OC(n2c(Br)nc3cc(Cl)c(Cl)cc32)C(O)C1O (configuration not stated) | 85 to 86
36 | COC(=O)C1=C(C)NC(C)=C(C(=O)OCCc2cc(C)[nH]c2C)C1c1cccc([N+](=O)[O-])c1 (configuration not stated) | 156 to 160
37 | N#Cc1nn(-c2c(Cl)cc(C(F)(F)F)cc2Cl)c(N)c1S(=O)(=O)C(F)(F)F | 219 to 222
38 | CNC1=NN(C(=O)C(C)(C)C)C(C)(C)S1 | 162 to 164
39 | CNCC(=O)NC(=O)OC(C)(C)C | 103
40 | O=C(O)C1Oc2ccc3ccccc3c2C=C1C(F)(F)F (configuration not stated) | 245 to 250
41 | Cc1noc(NS(=O)(=O)c2c(C)sc3ccccc23)c1Br | 131 to 133
42 | C=Cc1c(-c2ccccc2)coc1C(=O)NNC(=O)c1ccc(O)c(C#N)c1 | 170 to 174
43 | CCCCCCNC(=O)C(C)N1CCN(c2ccccn2)CC1 (configuration not stated) | 131 to 132
44 | Cc1cccc(N)c1C=C(Br)Br | 42 to 43
45 | Cc1ccc(C(O)c2c(OCc3ccccc3)c(=O)ccn2CCO)cc1 (configuration not stated) | 206 to 207
46 | CC1(C)C=Cc2cc(S(=O)(=O)C[N+](=O)[O-])ccc2O1 | 81
47 | COC(=O)C1=C(C)NC(C)=C(C(=O)OC(C)C)C1c1ccccc1[N+](=O)[O-] (configuration not stated) | 174
48 | CC(C)C(=O)NC1CCc2c(c3cc(C(N)=O)ccc3n2Cc2cccc(F)c2)C1 (configuration not stated) | 192 to 194
49 | O=C(O)C1CSC(C2CCCCC2)N1 (mixture of isomers) | 248
50 | CC(C)(C)OC(=O)Nc1ccc2ccc(S(=O)(=O)N(Cc3ccccc3)Cc3ccccc3)cc2c1 | 139 to 140

Row | SMILES | melting point [°C]
51 | COCc1cc2c(s1)CCCc1cc(=O)n(-c3ccc(OC)cc3)nc1-2 | 115 to 117
52 | O=C(O)c1cccnc1N1CCN(CCOCCO)CC1 | 172 to 174
53 | CCCc1c(OCCCc2ccc(O)c(O)c2)ccc(C(=O)O)c1O | 194 to 195
54 | CCCCCN(CCCCC)C(=O)C(CCC(=O)O)CS(=O)(=O)c1ccc(C(C)=O)cc1 (configuration not stated) | 69 to 71
55 | Cc1cccc(Cl)c1NC1=NCCN1 | 112 to 114
56 | O=C(CCNC(=O)[C@H](Cc1ccc(-c2ccccc2)cc1)NCP(=O)(O)Oc1ccccc1)OCc1ccccc1 | 243 to 244
57 | COc1ccc2ccccc2c1[N+](=O)[O-] | 129 to 130
58 | CCN1C(=O)C(C)(C)C(=O)N(C)c2cc(CCCN(CCn3ccc4ccoc4c3=O)Cc3cccnc3C)ccc21 | 106 to 115
59 | CCCCCCCCCCCCCCn1nnc(NC(=O)Nc2c(C(C)C)cccc2C(C)C)n1 | 112 to 114
60 | CN(C)CCC(=O)Nc1ccc2c(c1)C(=O)c1cc(NC(=O)CCN(C)C)ccc1C2=O | 196
61 | N#Cc1cccc(Oc2c(-c3ccccc3)cccc2-c2ccccc2)c1C#N | 129 to 130
62 | O=C1C=C(NC(=O)C(=O)c2cn(Cc3cc(C(F)(F)F)cc(C(F)(F)F)c3)c3ccccc23)CO1 | 276 to 278
63 | CC(C)(C)OC(=O)[C@H]1CC[C@@H](c2ccccc2)N1C(=O)CNC(=O)Nc1cccc(OCC(=O)O)c1 (racemic) | 192
64 | Cc1c(F)c([N+](=O)[O-])cc2c(=O)c(C(=O)O)cn(-c3cc(N)c(F)cc3F)c12 | 250 to 252
65 | O=C(Nc1cccc(-c2nnn[nH]2)c1)C(=O)N1CCC(Cc2ccccc2)CC1 | 159 to 161
66 | Cc1cccc(NC(=O)NCC(=O)N(CC(=O)N2CCCC2)c2ccccc2)c1 | 206
67 | CC(C)OC(=O)N1CCC(c2ccc3oc(-c4ccc(C(F)(F)F)cc4)nc3c2)CC1 | 145 to 148
68 | CN(Cc1sc2c(=O)c(C(=O)NCc3ccc(Cl)cc3)cn(C)c2c1CO)CC(O)c1ccc(C#N)s1 (configuration not stated) | 188 to 190
69 | CCc1cc2[nH]c(=O)c(=O)[nH]c2cc1Cl | > 315
70 | CCN1CCc2ccc(Nc3ncc([N+](=O)[O-])c(Nc4ccccc4C(=O)NC)n3)cc2CC1 | 222 to 225
71 | CC(=O)OCC1OC(n2c(=S)[nH]c3cc(Cl)c(Cl)cc32)C(OC(C)=O)C1OC(C)=O (configuration not stated) | 241
72 | O=C(CN1C(=O)C2(COc3cc(F)c(F)cc32)c2ccccc21)Nc1ccccc1F (configuration not stated) | 97 to 100
73 | O=c1[nH]c(N[N+](=O)[O-])ncc1Cc1cccc2ccccc12 | 226 to 227
74 | CC(C(=O)OC1(C)CCCCC1)c1ccc(N)cc1 (configuration not stated) | 85 to 87
75 | NC(=O)N1C(=O)C(C(=O)c2ccco2)c2ncc(Cl)cc21 (configuration not stated) | > 250

Row | SMILES | melting point [°C]
76 | Nc1nc(-c2ccco2)c(N2CCOCC2)s1 | 285 to 288
77 | O=C1N(c2ccccc2)c2ccccc2C1(Cc1ccccc1)Cc1ccncc1 (configuration not stated) | 127 to 128
78 | COC(=O)c1nn(-c2cccc(C(F)(F)F)c2)c(=O)cc1OC | 124 to 125
79 | CC(C)(C)CN1C(=O)C(=O)N(c2ccc(F)cc2)C1=S | 165 to 166
80 | O=C(N(CCCc1c[nH]c2ccccc12)CCOc1cccc2[nH]c(=O)[nH]c12)C(F)(F)F | 180 to 181
81 | CCC(=O)N[C@@H]1Cc2ccccc2N(OC)C1=O | 98 to 99
82 | CCCCCC(=O)C=Cc1cc(O)c2c(c1)OC(C)(C)C1CC=C(C)CC21 (configuration not stated) | 119
83 | CS(=O)(=O)Nc1ccc(OCC2CCN(c3cc(N)ccn3)CC2)cc1 | 213 to 214
84 | O=c1ccoc2c(CCCc3ccccc3)c(OCc3ccccc3)ccc12 | 106 to 108
85 | CN(C(=O)Nc1ccc(OC(F)(F)F)cc1)c1nc(OCC(F)(F)F)cc(OCC(F)(F)F)n1 | 123 to 125
86 | O=Cc1ccc(-c2cnco2)[nH]1 | 152 to 153
87 | CS(=O)(=O)N1CCn2c(nc3c(N)nc4cc(OCc5ccccc5)ccc4c32)C1 | 266 to 268
88 | CCCCCC(=O)c1c(Cn2cncn2)nc2cc(OC)c(OC)cc2c1-c1ccc(OC)c(OC)c1 | 151 to 152
89 | COC(=O)c1cc(N2CCC2)c(C(F)(F)F)cc1[N+](=O)[O-] | 127 to 136
90 | Nc1ccc(C(=O)N2CC3CC(CN(Cc4ccc(Cl)cc4)C3)C2)cc1 | 213
91 | ClCn1cnc(Cl)c1Cl | 40 to 41
92 | COc1ccccc1-c1cc2c(c(Br)cn2C)c2c1C(=O)NC2=O | 216 to 220
93 | O=CCCCCCN1C(=O)c2ccccc2C1=O | 69 to 71
94 | COc1cc2c(cc1OC)CC(Nc1ccc(O)cc1)CC2 (configuration not stated) | 150 to 152
95 | C[C@@H]1C(=O)C[C@H]2C[C@@H]1OO[C@@]2(C)/C=C\c1ccc(Br)c2ccccc12 | 167
96 | Cc1nc2cc(NC(=O)c3cc4cc(C(F)(F)F)cnc4n3Cc3cccc(F)c3)ccc2n1C | 263 to 265
97 | CN1C(=O)C2C3C=CC(C3)C2(c2cccc(Cl)c2)C1=O (configuration not stated) | 98 to 100
